Test results published in a melting point compilation (Tetko et al.; mined from patent text by program, amines drawn as free bases though some values may be those of a salt).

First: CCCCNC(=O)[C@@H]1CCCN1C(=O)OCc1ccccc1
Second: Cn1nc(Cl)c(C(=O)Cc2ccccc2)c1Cl
The melting point of the first is lower: 88 to 90 °C for the first, 94 to 96 °C for the second.

Compared with `COc1cc(OCC(=O)O)cc2c1C(=O)CC1(CCCCC1)S2`, `COc1cccc(C2=C(CC(C)N3CCCCC3)C(=O)N(C)CCC2)c1` (stereo not given) is lower in melting point: 195 to 196 °C for the first, 101 to 103 °C for the second.

First: CN1CCN(c2cc(Cl)cc3c2c(=O)n(CCCc2ccccc2)c(=O)n3Cc2ccccc2)CC1
Second: COc1cc(C(C)=O)ccc1OCCCN1CCN(c2nn(C(=O)c3ccccc3)c3cc(F)ccc23)CC1
The melting point of the first is lower: 55 to 63 °C for the first, 138 to 140 °C for the second.

First: CN1CCN(c2ccc(S(=O)(=O)c3cccc(F)c3)c(N)c2)CC1
Second: COc1ccc(N2CCN(C(=O)CC3C=Cc4ccccc43)CC2)cc1 (stereo not given)
The melting point of the first is lower: 89 to 92 °C for the first, 123 to 125 °C for the second.

First: COc1ccc(N(C)c2nc(N)nc3[nH]c4ccccc4c23)cc1
Second: Cc1cnc2c(NC(=O)c3c(Cl)cccc3Cl)cccc2c1Oc1ccccc1
The melting point of the first is higher: 234 °C for the first, 168 to 170 °C for the second.

Compared with `Clc1ccc2c(c1)C(c1ccccc1Cl)NCc1c[nH]cc1-2` (stereo not given), `O=C1c2cccc(-c3ccccc3)c2C(=O)C1c1ccccc1` (stereo not given) is lower in melting point: 211 to 212 °C for the first, 166 to 168 °C for the second.

Compared with `C=C(C)C(=O)NCc1cc(C)c(O)c(C)c1`, `CCOC(=O)c1cc(CCc2cc(OC)ccc2OC)ccc1NC(C)=O` is lower in melting point: 136 to 138 °C for the first, 93 °C for the second.

First: Cc1[nH]c(C(=O)NCC2=NNC(=O)CC2)c(C)c1-c1nc2ccc(C(=O)c3ccccc3)cc2[nH]1
Second: Cc1ccc(C)c(-c2c3ccccc3nc3ccc(NC(=O)c4ccccc4)cc23)c1
The melting point of the first is higher: 287 °C for the first, 253 to 255 °C for the second.

Compared with `CCCN(CCC)Cc1coc(-c2ncn3c2CN(C)C(=O)c2ccccc2-3)n1`, `CCOc1ccc(-c2c(Cl)ncn2-c2ccc(S(C)(=O)=O)cc2)cc1` is higher in melting point: 109 to 110 °C for the first, 207 °C for the second.

First: O=C(O)Cc1ccc2c(c1)C(=O)Cc1cccnc1O2
Second: O=CC1=Cc2cc(OCc3ccccc3)ccc2OC1
The melting point of the first is higher: 181 to 184 °C for the first, 112 to 114 °C for the second.

Compared with `CCOCc1nc2c(N)nc(C)c(C)c2n1CCOCc1ccncc1`, `CCn1c(CCOC(N)=O)nc(C(C)C)c1Sc1cc(Cl)cc(Cl)c1` is higher in melting point: 143 to 145 °C for the first, 161 to 162 °C for the second.

First: O=C(NCCSCc1cccc(Cl)c1)c1c(F)cccc1F
Second: FCCOc1ccc(COCc2ccc(Cl)cc2)cc1
The melting point of the first is lower: 41 to 43 °C for the first, 43 to 43.7 °C for the second.

First: CCS(=O)(=O)c1cc(OC)c(OC)c(C(=O)NCC2CCCN2CC2CC2)c1 (stereo not given)
Second: O=C(O)c1cnc2ccc(C3CCCCC3)cc2c1O
The melting point of the first is lower: 167 to 170 °C for the first, 263 to 265 °C for the second.

Compared with `CCc1nc(OC)c(NC(=O)N2CCN(c3cc(F)cc(F)c3)CC2)cc1C(=O)NC(C)C(=O)Nc1cc(CO)cc(Nc2c3ccccc3nc3ccccc23)c1` (stereo not given), `COc1ccc(-c2ccc(C(=O)Nc3cc4ncc(CN5CCCC5)cc4cc3C)cc2)cc1` is lower in melting point: 202 to 204 °C for the first, 194 to 198 °C for the second.

First: c1ccc(OCCn2ccnc2)cc1
Second: NCC(O)COc1cccc(Cl)c1 (stereo not given)
The melting point of the first is higher: 88 °C for the first, 55 to 58 °C for the second.

Compared with `CCN1CC(NC(=O)Nc2cc(Cl)cc(Cl)c2)CN1CC`, `COc1cc2c(cc1C(O)COc1ccc(C(=O)O)c(O)c1)C(C)(C)CCC2(C)C` (stereo not given) is higher in melting point: 165 to 167 °C for the first, 178 to 179 °C for the second.

First: CC1(C)CC(O)CC2(C)OC(=O)C=C12 (stereo not given)
Second: CC(=O)OC1CCC2C3CCC4=CC(=O)C(I)C(C)C4(C)C3CCC12C (stereo not given)
The melting point of the first is higher: 148 to 149 °C for the first, 102 °C for the second.

First: C[C@]1(COc2ccc(-c3nc(-c4ccc(Cl)cc4)co3)cc2)Cn2cc([N+](=O)[O-])nc2O1
Second: CCc1nccc(N(C(=O)Cc2ccc(Oc3ccc(C(F)(F)F)cn3)cc2)C(=O)OC)c1Cl
The melting point of the first is higher: 249 to 252 °C for the first, 62 to 64 °C for the second.

First: Cc1ccc2sc(C(=O)O)cc(=O)c2c1
Second: COc1ccc(C(=O)c2noc(CC#N)n2)cc1
The melting point of the first is higher: 236 to 237 °C for the first, 92 to 94 °C for the second.

First: CC(c1ccc(S(C)(=O)=O)cn1)C(O)(Cn1cncn1)c1ccc(F)cc1F (stereo not given)
Second: Ic1ccnc2c1CCCN2
The melting point of the first is higher: 176 to 177 °C for the first, 117 to 118 °C for the second.
